Data published in patent publication US20160214958A1, “COMPOUNDS AND USE FOR TREATING CANCER” (GLIONOVA AB, priority 2013, published 2016).
pEC50: −log10 of the molar value.

Columns and labels:
human fibroblasts = assay: Viability (ATP) of fibroblasts in presence of S10; type: cell-based; conditions: Fibroblast
Experimental: (§1) The ability of Examples S1-S23 to selectively induce cytotoxicity in glioma/glioblastoma cancer cells or glioma/glioblastoma cancer stem cells was determined by quantification of ATP production in glioma stem cell line U3013 in the presence of using CellTiterGlo reagent (Promega). Cells were exposed to compound in serial dilution in the range 1 nM to 50 µM for 24 hours and viability assessed with respect to negative control (dmso, no cell death) and positive control (staurosporine, full cell death). […] The EC50 of S10 remained largely similar at 2, 3 and 4 days of incubation. […] The individual isomers (S21-S23) of racemic S10 were evaluated in order to determine the enantiospecific pharmacology of the individual isomers.
For measuring cell viability, cytotoxicity and apoptosis in GSC/fibroblast/mGlia cells were grown in 384-well microtiter plates using procedure described above. […] Cell viability, cytotoxcity and apoptosis were measured using CellTiter-Glo® Luminescent Cell Viability Assay (Promega), CytoTox-Glo Cytotoxicity Assay and […], according to manufacturer's instructions. […] Luminescence was measured using a Victor3 FA (Perkin Elmer) microtiterplate reader and the level of released Caspase 3/7 quantified relative to control using GraphPad Prism (v6.02) software.

phospho-MKK4 = assay: Western blot of GSC for phospho-MKK4; type: cell-based, human; conditions: GSCs; remained at similar levels for at least 26 hrs
Text: A genome wide screen with shRNA libraries was used to identify pathways for S10 induced macropinocytosis. The approach was based on the idea that depleting a key factor in the pathway should render GSCs refractive to S10 induced death. Three different DECIPHER pooled lentiviral shRNA libraries consisting of 82500 shRNA covering 15377 genes grouped into Human Module 1 (genes associated with various signaling pathways), Human Module 2 (disease-associated genes) and Human Module 3 (genes associated with cell surface, extracellular and DNA binding), were used to transduce U3013MG GSCs. Four days later, 14 μM S10 was added for one day after which cells were cultured in standard medium for five month. Surviving cells were thereafter dissociated and further expanded. […] Phospho-MKK4 increased within 5 min of S10 exposure and remained at similar levels for at least 26 hrs of stimulation. […]
Whole-cell extracts were prepared in SDS-buffer (25 mM Tris-HCl, pH 7.5, 1 mM EDTA, protease inhibitor cocktail (Roche), and phosphatase inhibitors [2 mM sodium orthovanadate, 20 mM beta-glycerolphosphate], and 1% SDS). The samples were analysed by western blot as described previously (Aranda et al. (2008) Mol Cell Biol, 28, 5899-5911) with the following antibodies: anti-Histone H3 (Abcam), antitrimethyl(Lys27)-Histone H3 (Millipore) and anti-phospho(S257/Thr261)-SEK1/MKK4 (R&D Systems).

[1] = tested on: glioma stem cell line U3013; assay: In vitro cancer cell and CSC viability assay (ATP quantification, CellTiterGlo); type: cell-based, human; conditions: Homo sapiens; U3013, 24 hours exposure; read-out: In vitro efficacy (viability) EC50
Experimental: as §1
Negative (100% DMSO) and positive (10 mM S10 in 100% DMSO) controls were placed in rows 1-4 and 5-8, respectively, of column 12. The wells were diluted with 190 μl of the corresponding growth media and 5 μl of each well of compound solution transferred to quadruplicate wells of a sterile 384-well black clear bottom plate (BD Falcon) containing GSC at 70% confluency in 45 μl growth media. The plate was incubated for 24 hours, after which the plate was removed from the incubator and each well imaged in bright-field using an Operetta Imaging system (PerkinElmer) at 37° C. and 5% CO2 to determine vacuole accumulation at each concentration. The plate was then allowed to cool to room temperature and each well treated with 25 μl freshly CellTiterGlo (Promega) reagent. The plate was shaken for 15 minutes and luminescence measured using a Victor3 (Perkin Elmer) microtiterplate reader. Total luminescence was normalized relative to control and curve fitting performed using GraphPad Prism (v6.02) software.

## OC(c1cc(-c2ccc(Cl)cc2)nc2ccccc12)C1CCCCN1 (racemic) [Compound S10, (2-(4-chlorophenyl)quinolin-4-yl)(piperidin-2-yl)methanol]
Human fibroblasts; after 24 hrs
  pEC50: 4.73
Human fibroblasts; at 96 hours
  pEC50: 4.64
phospho-MKK4
  time to increase of Phospho-MKK4 after exposure: ≤ 5 min
[1]
  pEC50: 5.63
